Measured values: PMC6287543 (International Journal for Parasitology: Drugs and Drug …, 2018)
Values joined by “and” are separate entries in the source; they are usually repeats but may differ in a detail not shown here. Identical values can stand only once. “Also recorded” adds a separate entry of the source.

Legend:
S. mansoni = test: Murine model of S. mansoni infection: worm burdens recovered by perfusion; assay type: in vivo, Schistosoma mansoni; conditions: mice; for reduction in female worm burden / reduction in male worm burden: 42 dpi
[1] = oral 60 mg/BID over 24 weeks; ref Kim et al., 2017; cited from earlier work

SMILES	efficacy against 21-day-old juvenile parasites (S. mansoni; 100 mg/kg PO QDx4 from 21 dpi, 100 mg/kg)	reduction in female worm burden (S. mansoni; single oral 200 mg/kg) [%]	reduction in male worm burden (S. mansoni; single oral 200 mg/kg) [%]	reduction in female worm burden (S. mansoni; single oral 400 mg/kg) [%]	reduction in male worm burden (S. mansoni; single oral 400 mg/kg, 400 mg/kg)	worm kill, juvenile 21 day-old parasites (S. mansoni; single oral doses)	tolerability [1]
O=C(C1CCCCC1)N1CC(=O)N2CCc3ccccc3C2C1 (stereo not shown) [PZQ, praziquantel]	ineffective; also recorded: essentially inactive	97	78	100	100% and 97%	zero kill	
Cc1c(-c2cnccn2)ssc1=S [Oltipraz]							well-tolerated
